Converted amounts (≈) assume the structure as drawn.
Legend:
[1] = Cytotoxicity (IC50) of components separated from Kumazasa extract; conditions: human, MRC-5 human fetal lung fibroblast cells
[2] = tested on: human cytomegalovirus (HCMV); test: Suppression of HCMV virus production in infected MRC-5 cells (plaque technique); type: cell-based; conditions: for EC50: Human betaherpesvirus 5, MRC5, HCMV proliferation in MRC-5 cells, read-out: EC50 (50% effective concentration); for SI (selection index): IC50/EC50
[3] = tested on: influenza type A virus (A/Hiroshima/52/2005, H3N2); test: Plaque technique in MDCK cells, influenza type A virus; type: cell-based; conditions: tricin concentration of 0.3 μg/ml
[4] = tested on: influenza type B virus (B/Malaysia/2506/2004); test: Plaque technique in MDCK cells, influenza type B virus; type: cell-based; conditions: tricin concentration of 0.3 μg/ml
in vitro = conditions: human

Row | Compound | IC50 [1] [µg/mL] | EC50 [2] [µg/mL] | SI (selection index) [2] | proliferation suppression ratio (pt/pc×100%) [3] [%] | proliferation of the virus (virus titer) ([2]; tricin concentration of 111 μg/ml, FIG. 4) | proliferation suppression ratio (pt/pc×100%) [4] [%] | IC50 (in vitro) [µg/mL]
1 | Oc1cccnc1 [3-hydroxy pyridine, 3-hydroxypyridine] | 263 (≈ 2770 µM) | 3.4 (≈ 35.8 µM) | 77.4 | – | – | – | –
2 | Nc1nc(O)c2ncn(COC(CO)CO)c2n1 [Ganciclovir, reference compound] | – | 0.3 to 0.8 (≈ 1.18 to 3.13 µM) | – | – | – | – | –
3 | COc1cc(-c2cc(=O)c3c(O)cc(O)cc3o2)cc(OC)c1O [Tricin, 5,7,4′-trihydroxy-3′,5′-dimethoxyflavone] | 2050 (≈ 6210 µM) | 1.7 (≈ 5.15 µM) | 1205.8 | 52 | virtually completely inhibited | 48 | –
4 | COc1cc(C=O)ccc1O [Vanillin, vanillin] | 215 (≈ 1410 µM) | 48 (≈ 315 µM) | 4.5 | – | – | – | –
5 | O=C(O)/C=C/c1ccc(O)cc1 [p-coumaric acid, reference compound] | 187 (≈ 1140 µM) | 8.2 (≈ 50 µM) | 22.8 | – | – | – | –
6 | O=Cc1ccc(O)cc1 [p-hydroxybenzaldehyde] | – | 12.8 (≈ 105 µM) | 23.8 | – | – | – | 305 (≈ 2500 µM)

— patent publication US20130131121A1, “ANTI-VIRAL AGENT” (priority 2007, published 2013)
